Source: the supplement of paper PMC10307832

How the values were obtained:
Assay in all cases: relative viability (nuclei count vs DMSO), 5 days (fraction); higher = more cells survive
Metformin + Pictilisib = compound: CN(C)C(=N)NC(=N)N [Metformin] + CS(=O)(=O)N1CCN(Cc2cc3nc(-c4cccc5[nH]ncc45)nc(N4CCOCC4)c3s2)CC1 [Pictilisib] (partner 1 µM)
How it was run: (§1)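 Each reported value is a median over duplicate plates. It expresses relative viability: treated-well nuclei count divided by vehicle-well nuclei count. Lung cancer cell lines in 1536-well plates were dosed by pin tool a day after seeding, alone with one drug or with a fixed anchor-drug dose plus five library-drug doses (not always all listed) in √10 steps, and nuclei were counted after 5 days.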

Metformin + Linsitinib = compound: CN(C)C(=N)NC(=N)N [Metformin] + C[C@]1(O)C[C@@H](c2nc(-c3ccc4ccc(-c5ccccc5)nc4c3)c3c(N)nccn32)C1 [Linsitinib] (partner 1 µM)
How it was run: as §1

Metformin + OSI-027 = compound: CN(C)C(=N)NC(=N)N [Metformin] + COc1cccc2cc(-c3nc([C@H]4CC[C@H](C(=O)O)CC4)n4ncnc(N)c34)[nH]c12 [OSI-027] (partner 0.5 µM)
How it was run: as §1

Metformin + Tozasertib = compound: CN(C)C(=N)NC(=N)N [Metformin] + Cc1cc(Nc2cc(N3CCN(C)CC3)nc(Sc3ccc(NC(=O)C4CC4)cc3)n2)n[nH]1 [Tozasertib] (partner 0.1 µM)
How it was run: as §1

| Cell Line | relative viability (Metformin + Pictilisib; first compound 10 µM) | relative viability (Metformin + Pictilisib; first compound 31.62 µM) | relative viability (Metformin + Pictilisib; first compound 100 µM) | relative viability (Metformin + Pictilisib; first compound 316.23 µM) | relative viability (Metformin + Pictilisib; first compound 1000 µM) | relative viability (Metformin + Linsitinib; first compound 10 µM) | relative viability (Metformin + Linsitinib; first compound 31.62 µM) | relative viability (Metformin + Linsitinib; first compound 100 µM) | relative viability (Metformin + Linsitinib; first compound 316.23 µM) | relative viability (Metformin + Linsitinib; first compound 1000 µM) | relative viability (Metformin + OSI-027; first compound 10 µM) | relative viability (Metformin + OSI-027; first compound 31.62 µM) | relative viability (Metformin + OSI-027; first compound 100 µM) | relative viability (Metformin + OSI-027; first compound 316.23 µM) | relative viability (Metformin + OSI-027; first compound 1000 µM) | relative viability (Metformin + Tozasertib; first compound 10 µM) | relative viability (Metformin + Tozasertib; first compound 31.62 µM) | relative viability (Metformin + Tozasertib; first compound 100 µM) | relative viability (Metformin + Tozasertib; first compound 316.23 µM) | relative viability (Metformin + Tozasertib; first compound 1000 µM) |
| --- | --- | --- | --- | --- | --- | --- | --- | --- | --- | --- | --- | --- | --- | --- | --- | --- | --- | --- | --- | --- |
| NCI-H358 | 0.356 | 0.424 | 0.44 | 0.332 | 0.378 | 1.04 | 0.937 | 0.959 | 1.13 | 1.31 | 0.737 | 0.879 | 0.801 | 0.716 | 0.749 | 0.0917 | 0.104 | 0.101 | 0.0897 | 0.0865 |
| PC-14 | 0.577 | 0.811 | 0.654 | 0.734 | 0.776 | 1.03 | 0.955 | 0.916 | 0.918 | 1.03 | 0.648 | 0.929 | 0.657 | 0.607 | 0.574 | 0.618 | 0.714 | 0.673 | 0.674 | 0.814 |
| NCI-H650 | 0.96 | 1.01 | 1.12 | 1.06 | 0.978 | 0.859 | 0.955 | 0.845 | 0.983 | 1.3 | 0.517 | 0.549 | 0.535 | 0.584 | 0.607 | 0.831 | 0.8 | 0.973 | 0.48 | 0.919 |
| NCI-H2405 | 0.469 | 0.518 | 0.322 | 0.373 | 0.389 | 0.845 | 0.92 | 0.981 | 0.882 | 0.436 | 0.567 | 0.573 | 0.608 | 0.606 | 0.559 | 0.701 | 0.732 | 0.801 | 0.763 | 0.716 |
| NCI-H2228 | 0.306 | 0.294 | – | 0.227 | 0.448 | 0.542 | 0.973 | – | 0.583 | 0.889 | 0.81 | 0.551 | 0.456 | 0.513 | 0.792 | 0.27 | 0.31 | 0.241 | 0.333 | 0.409 |
| H3255 | 0.388 | 0.53 | 0.4 | 0.46 | 0.478 | 0.942 | 1.08 | 0.961 | 0.938 | 0.873 | 0.477 | 0.654 | 0.623 | 0.457 | 0.611 | 0.603 | 0.551 | 0.615 | 0.562 | 0.592 |
| EBC-1 | 0.508 | 0.444 | 0.467 | 0.306 | 0.313 | 0.796 | 0.997 | 0.815 | 0.698 | 0.884 | – | – | – | – | – | – | – | – | – | – |
| NCI-H520 | 0.302 | 0.31 | 0.28 | 0.258 | 0.361 | 1.09 | 0.842 | 1.02 | 0.914 | 0.931 | 0.306 | 0.35 | 0.322 | 0.28 | 0.348 | 0.462 | 0.496 | 0.463 | 0.498 | 0.469 |
| SK-LU-1 | 0.543 | 0.554 | 0.674 | 0.685 | 0.719 | 0.947 | 1.08 | 0.674 | 1.08 | 1.03 | 0.32 | 0.389 | 0.354 | 0.318 | 0.299 | 0.263 | 0.311 | 0.272 | 0.263 | 0.307 |
| NCI-H1648 | – | – | – | – | – | – | – | – | – | – | 0.24 | 0.264 | 0.264 | 0.285 | 0.279 | 0.474 | 0.656 | 0.859 | 0.706 | 0.742 |
| NCI-H522 | – | – | – | – | – | – | – | – | – | – | 0.796 | 0.752 | 0.708 | 0.744 | 0.667 | 0.68 | 0.695 | 0.693 | 0.609 | 0.764 |
| NCI-H1650 | 0.791 | 0.702 | 0.721 | 0.607 | 0.504 | – | – | – | – | – | 0.887 | 0.889 | 0.837 | 0.771 | 0.38 | 0.433 | 0.443 | 0.496 | 0.442 | 0.364 |
| NCI-H1792 | – | 0.398 | 0.393 | 0.47 | 0.428 | – | 0.742 | 0.803 | 0.632 | 0.664 | – | 0.91 | 0.909 | 0.697 | 0.678 | – | – | – | – | – |
| NCI-H2170 | 0.3 | 0.283 | 0.301 | 0.31 | 0.264 | – | – | – | – | – | 0.566 | 0.52 | 0.683 | 0.673 | 0.711 | 0.731 | 0.733 | 0.779 | 0.758 | 0.693 |
| Calu-6 | 0.733 | 0.886 | 0.769 | 0.531 | 0.413 | 0.862 | 0.971 | 0.921 | 0.941 | 0.978 | – | – | – | – | – | – | – | – | – | – |
| SW 900 | – | – | – | – | – | – | – | – | – | – | 0.597 | 0.781 | 0.617 | 0.544 | 0.538 | 0.476 | 0.482 | 0.658 | 0.461 | 0.657 |
| NCI-H1703 | 0.291 | 0.309 | 0.29 | 0.291 | 0.226 | 1.41 | 0.892 | 0.832 | 0.485 | 0.599 | – | – | – | – | – | – | – | – | – | – |
| NCI-H2342 | – | – | – | – | – | – | – | – | – | – | 0.538 | 0.617 | 0.55 | 0.549 | 0.568 | 0.507 | 0.447 | 0.618 | 0.35 | 0.276 |
| NCI-H1623 | – | – | – | – | – | – | – | – | – | – | 0.449 | 0.469 | 0.463 | 0.539 | 0.478 | 0.363 | 0.413 | 0.452 | 0.337 | 0.452 |
| NCI-H1563 | 0.605 | 0.651 | 0.62 | 0.624 | 0.646 | 1.22 | 1.34 | 1.19 | 0.955 | 0.893 | 0.742 | 0.797 | 0.778 | 0.722 | 0.866 | – | – | – | – | – |
| ChaGo-K-1 | 0.824 | 1.12 | 0.686 | 0.801 | 0.906 | – | – | – | – | – | 0.595 | 0.599 | 0.6 | 0.543 | 0.597 | 0.254 | 0.281 | 0.246 | 0.202 | 0.22 |
| IA-LM | 0.337 | 0.462 | 0.41 | 0.38 | 0.303 | 0.119 | 0.729 | 0.611 | 0.404 | 0.78 | – | – | – | – | – | – | – | – | – | – |
